Measurements taken from ChEMBL document CHEMBL1201862, “PubChem BioAssay data set” (2004).
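Briefly, cells in 96-well plates were exposed to five compound concentrations for 48 h, and endpoints were estimated by linear interpolation. GI50 is the concentration that inhibits growth by half.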 Active and inactive are the calls of the source. Cut-off read from the data, not from the text of the source: active = GI50 up to about 1.1 µM and inactive = higher.

How the values were obtained:
Assay in all cases: DTP human tumour cell line panel, 48 h
[1] = system: OVCAR-4
[2] = system: SK-MEL-5
[3] = system: A549
[4] = system: NCI-H460
[5] = system: CCRF-CEM
[6] = system: SK-MEL-28
[7] = system: OVCAR-8
[8] = system: HCT-116
[9] = system: EKVX
[10] = system: RXF 393
[11] = system: OVCAR-5
[12] = system: MOLT-4
[13] = system: KM-20L2
[14] = system: HCC 2998
[15] = system: SR
[16] = system: HOP-92
[17] = system: ACHN
[18] = system: M19-MEL
[19] = system: SN12C
[20] = system: SK-MEL-2
[21] = system: UACC-257
[22] = system: UO-31
[23] = system: NCI-H522
[24] = system: RXF 631
[25] = system: DLD-1
[26] = system: HT-29
[27] = system: SF-539
[28] = system: DMS-114
[29] = system: IGROV-1
[30] = system: COLO 205
[31] = system: A498
[32] = system: HL-60
[33] = system: SNB-19
[34] = system: SW-620
[35] = system: Malme-3M
[36] = system: SF-268
[37] = system: HOP-62
[38] = system: 786-0
[39] = system: M14
[40] = system: TK-10
[41] = system: RPMI-8226
[42] = system: SK-OV-3
[43] = system: K562
[44] = system: UACC-62
[45] = system: NCI-H23
[46] = system: KM12
[47] = system: U-251
[48] = system: DMS-273
[49] = system: SF-295
[50] = system: SNB-78

Measured: GI50

C[N+](C)(C)CC(=O)N/N=C/c1oc(-c2cccc([N+](=O)[O-])c2)c(-c2cccc([N+](=O)[O-])c2)c1[N+](=O)[O-]
inactive: [1] > 100 µM | [2] 72.3 µM | [3] > 100 µM | [4] > 100 µM | [5] 35.2 µM | [6] 44.3 µM | [7] 70.8 µM | [8] 32.7 µM | [9] > 100 µM | [10] 76.9 µM | [11] > 100 µM | [12] > 10 µM | [13] > 100 µM | [14] > 100 µM | [15] 40.1 µM | [16] > 100 µM | [17] > 100 µM | [18] 38.5 µM | [19] > 100 µM | [20] > 100 µM | [21] > 100 µM | [22] 79.1 µM | [23] 50.7 µM | [24] 49.7 µM | [25] 64.4 µM | [26] > 100 µM | [27] > 100 µM | [28] 47.3 µM | [29] 95.5 µM | [30] > 100 µM | [31] > 100 µM | [32] 42.3 µM | [33] 85.9 µM | [34] 31.3 µM | [35] > 100 µM | [36] > 100 µM | [37] > 100 µM | [38] 48.1 µM | [39] > 100 µM | [40] > 100 µM | [41] 21.7 µM | [42] > 100 µM | [43] > 10 µM | [44] 29.5 µM | [45] > 100 µM

COc1ccccc1-c1csc(CCC(N)C(=O)O)n1 (stereo unspecified)
inactive: [3] > 100 µM | [4] > 100 µM | [5] > 100 µM | [46] > 100 µM | [6] > 100 µM | [7] > 100 µM | [8] > 100 µM | [9] > 100 µM | [10] > 100 µM | [11] > 100 µM | [47] > 100 µM | [48] > 100 µM | [12] > 100 µM | [13] > 100 µM | [15] > 100 µM | [16] > 100 µM | [17] > 100 µM | [18] > 100 µM | [49] > 100 µM | [21] > 100 µM | [22] > 100 µM | [23] > 100 µM | [24] > 100 µM | [26] > 100 µM | [28] > 100 µM | [29] > 100 µM | [31] > 100 µM | [50] > 100 µM | [32] > 100 µM | [33] > 100 µM | [37] > 100 µM | [39] > 100 µM | [40] 26.3 µM | [42] > 100 µM | [44] > 100 µM | [45] > 100 µM
